{
  "source": "paper PMC12316777",
  "molecules": {"B1": {"name": "ExoN substrate dsRNA (dsRNA)", "RNA 1": "GGUAGUAAUCCGCUC", "RNA 2": "UUUUUUUUUUUUUUUUUUUUGAGCGGAUUACUACUACC"}},
  "key": {"[1]": {"target": "SARS-CoV-2 nsp14/nsp10 complex (Severe acute respiratory syndrome coronavirus 2, UniProt P0DTD1)", "assay": "FRET-based exoribonuclease (ExoN) activity assay", "assay_type": "biochemical", "conditions": "for IC50: nsp14/nsp10 pre-incubated with compound 1 h, n = 3, read-out: IC50 (± SD) ExoN"}, "SARS-CoV-2 nsp14 [2]": {"target": "T1, SARS-CoV-2 nsp14 (Severe acute respiratory syndrome coronavirus 2, UniProt P0DTD1)", "assay_type": "biochemical", "conditions": "for Km: increasing molar equivalents of Au(I); for IC50: read-out: IC50 (± SD) MTase"}, "SARS-CoV-2 nsp14 [3]": {"target": "T1, SARS-CoV-2 nsp14", "assay": "EMSA of nsp14 binding to dsRNA ExoN substrate", "conditions": "4 µM nsp14, 0–40 µM drug, 200 nM dsRNA", "excerpt": "Next, we explored the inhibition mechanism of nsp14/nsp10 by Au(I). We first investigated the inhibition mode of Au(I) on the dual activities of nsp14, for which we selected Au(PEt3)Cl as a showcase. To explore the influence of Au(I) on the kinetics of the nsp14/nsp10 ExoN activity, a 20-nucleotide 5′-dU overhang conjugated to a Cy3/BHQ2 pair was used as an RNA duplex substrate. Then, the reciprocals of the reaction velocity and the concentration of the two substrates were used to plot the Lineweaver–Burk plot. And the Michaelis–Menten constant (Km) and the maximum reaction rate (Vmax) were calculated by nonlinear fitting to the Michaelis − Menten equation.\nRNA-binding capability of nsp14 was determined by EMSA. […] For the bismuth(III) and Au(I) addition assays, nsp14 (4 µM) was pre-incubated with various concentrations of drugs (0, 1, 2, 4, 8, 20, 40 µM) in HEPES buffer for 2 h on ice before the RNA-binding assays before incubating with 200 nM of dsRNA at room temperature for 15 min. A 20 µL of the reaction mixture was then loaded onto 6% native-polyacrylamide gels and electrophoresed in 1xTBE buffer. Electrophoresis was carried out at 100 V for 50 min. Gels were subsequently stained by GelRed (Sigma Aldrich) for 5 min at room temperature and visualized through iBright™ CL750 Imaging System (Thermo Fisher Scientific).\nExoN substrates. Relative band intensities were quantified by ImageJ. […]"}, "SARS-CoV-2 nsp14 [4]": {"target": "T1, SARS-CoV-2 nsp14", "assay": "Metal displacement analysis (equilibrium dialysis, ICP-MS), nsp14", "assay_type": "binding", "excerpt": "(§1) Since nsp14 and nsp10 have 3 and 2 zinc-finger motifs respectively, playing structural roles and as well as being important to the functions of nsp14/nsp10 complex. The soft nature of Au(I) makes it very likely to bind to the thiolates/nitrogen atoms in these cysteine/histidine-rich zinc-binding sites. To verify this, we then investigated the binding of Au(I) to the native nsp14 and nsp10 using equilibrium dialysis and determined the metal contents by inductively coupled plasma mass spectrometry (ICP-MS). […] Similarly, ca. 1.84 ± 0.66 mol equiv of Au(I) bound to per nsp10, accompanied by ca. 1.89 ± 0.28 mol equiv of Zn(II) release. […] In addition, since the ExoN activity of nsp14 is largely stimulated by nsp10, and nsp10 − nsp14 intermolecular interaction involves residues around the zinc finger of nsp10 [33, 34], we also examined the influence of Au(I) binding to nsp10 on the ExoN activity of nsp14.\n(§2) Au(I) binding and Zn(II) release on nsp10 and nsp14 were determined by Inductively Coupled Plasma Mass Spectrometry (ICP-MS) on Agilent 7700 × ICP-MS (Agilent Technologies). […] Dialysis tubes loaded with 100 μL Zn-bound proteins (5 μM for nsp14 and nsp13 and 20 μM for nsp10) or protein buffer were placed into 50 mL dialysis buffer in the presence of different concentrations of Au(I) compounds (as Au(PEt3)Cl) with mild shaking at 18 °C overnight. The protein concentration was measured by bicinchoninic acid (BCA) assay, and the metal concentration of solution both inside and outside the dialysis tubes was determined by ICP-MS."}, "SARS-CoV-2 nsp10": {"target": "SARS-CoV-2 nsp10 (Severe acute respiratory syndrome coronavirus 2, UniProt P0DTD1)", "assay": "Metal displacement analysis (equilibrium dialysis, ICP-MS), nsp10", "assay_type": "binding", "excerpt": "as §1, §2"}, "SARS-CoV-2 nsp14 [5]": {"target": "T1, SARS-CoV-2 nsp14", "assay": "Circular dichroism spectroscopy of nsp14 (BeStSel)", "conditions": "CD deconvoluted by BeStSel; around 65% in untreated nsp14"}, "SARS-CoV-2 nsp14 [6]": {"target": "T1, SARS-CoV-2 nsp14", "assay": "Size-exclusion chromatography of nsp14", "conditions": "0−10 molar equivalents; monomer peak 9.6 mL decreases, peak at ca. 9.1 mL appears"}, "[7]": {"tested_on": "SARS-CoV-2 Omicron BA.5 in VeroE6-TMPRSS2 cells", "assay": "Plaque reduction assay", "assay_type": "cell-based", "conditions": "VeroE6-TMPRSS2, n = 2, read-out: EC50, inhibition of SARS-CoV-2 virus replication"}, "nsp14 (ExoN/N7-MTase)": {"target": "nsp14 (ExoN/N7-MTase) (SARS-CoV-2 isolate Wuhan-Hu-1, UniProt P0DTD1 5926-6452)", "assay": "EMSA; no Au(I); 200 nM dsRNA, nsp14 0-8 uM", "conditions": "protein: recombinant; tags: N-terminal 6xHis, removed with thrombin; label: 5'-Cy3 on top strand; labels in EMSA not restated"}, "[8]": {"conditions": "nsp14 pre-incubated with compound 1 h, n = 3"}},
  "note": "Where two headings read alike, the source gives them in different places.",
  "data": [
    {"molecule": "CCP(CC)CC.[Au+].[Cl-]", "note": "[Au(PEt3)Cl, chloro(triethylphosphine)gold(I)]", "values": [
      {"measurement": "mode of inhibition of ExoN activity", "setting": "[1]; Lineweaver–Burk / Michaelis–Menten analysis", "value": "noncompetitive"},
      {"measurement": "Vmax, ExoN kinetics", "setting": "[1]; decreased from 2.7 with different molar equivalents of Au(I)", "value": 0.5, "unit": "nM/min"},
      {"measurement": "IC50", "setting": "[1]", "value": "380 ± 40", "unit": "nM"},
      {"measurement": "Vmax, G(5′)ppp(5′)A RNA-dependent MTase kinetics", "setting": "SARS-CoV-2 nsp14 [2]", "value": 0.12, "unit": "µM/min"},
      {"measurement": "Vmax, SAM-dependent MTase kinetics", "setting": "SARS-CoV-2 nsp14 [2]", "value": 0.09, "unit": "µM/min"},
      {"measurement": "mode of inhibition of MTase activity", "setting": "SARS-CoV-2 nsp14 [2]; SAM- and GpppA-RNA-dependent kinetics", "value": "noncompetitive"},
      {"measurement": "Km", "setting": "SARS-CoV-2 nsp14 [2]; read-out: Km, G(5′)ppp(5′)A RNA-dependent MTase kinetics", "value": "1.18 ± 0.02", "unit": "µM"},
      {"measurement": "Km", "setting": "SARS-CoV-2 nsp14 [2]; read-out: Km, SAM-dependent MTase kinetics", "value": "1.62 ± 0.02", "unit": "µM"},
      {"measurement": "IC50", "setting": "SARS-CoV-2 nsp14 [2]; [8]", "value": "4500 ± 980", "unit": "nM"},
      {"measurement": "effect on formation of the nsp14−RNA complex", "setting": "SARS-CoV-2 nsp14 [3]", "value": "negligible effects"},
      {"measurement": "Au(I) bound per nsp14", "setting": "SARS-CoV-2 nsp14 [4]; equilibrium dialysis, ICP-MS", "value": "ca. 2.95 ± 0.23 mol equiv"},
      {"measurement": "Zn(II) release from nsp14", "setting": "SARS-CoV-2 nsp14 [4]; equilibrium dialysis, ICP-MS", "value": "ca. 2.56 ± 0.21 mol equiv"},
      {"measurement": "maximal binding capacity (Bmax), nsp14", "setting": "SARS-CoV-2 nsp14 [4]; fit to specific binding plot", "value": "3.10 ± 0.32"},
      {"measurement": "Kd", "setting": "SARS-CoV-2 nsp14 [4]; fit to specific binding plot, read-out: dissociation constant (Kd), nsp14", "value": "6540 ± 330", "unit": "nM"},
      {"measurement": "Au(I) bound per nsp10", "setting": "SARS-CoV-2 nsp10; equilibrium dialysis, ICP-MS", "value": "ca. 1.84 ± 0.66 mol equiv"},
      {"measurement": "Zn(II) release from nsp10", "setting": "SARS-CoV-2 nsp10; equilibrium dialysis, ICP-MS", "value": "ca. 1.89 ± 0.28 mol equiv"},
      {"measurement": "maximal binding capacity (Bmax), nsp10", "setting": "SARS-CoV-2 nsp10; fit to specific binding plot", "value": "1.75 ± 0.60"},
      {"measurement": "Kd", "setting": "SARS-CoV-2 nsp10; fit to specific binding plot, read-out: dissociation constant (Kd), nsp10", "value": "6550 ± 770", "unit": "nM"},
      {"measurement": "helix content in nsp14 after treatment", "setting": "SARS-CoV-2 nsp14 [5]", "value": 36, "unit": "%"},
      {"measurement": "effect on quaternary structure of nsp14", "setting": "SARS-CoV-2 nsp14 [6]", "value": "partial oligomerization"}
    ]},
    {"molecule": "[Cl][Au]", "note": "[AuCl, gold(I) chloride]", "values": [
      {"measurement": "IC50", "setting": "[1]", "value": "5780 ± 310", "unit": "nM"},
      {"measurement": "IC50", "setting": "SARS-CoV-2 nsp14 [2]; [8]", "value": "910 ± 10", "unit": "nM"}
    ]},
    {"molecule": "O=S(=O)([O-])[S-].O=S(=O)([O-])[S-].[Au+].[Na+].[Na+].[Na+]", "note": "[Na3Au(S2O3)2, gold(I) sodium thiosulfate]", "values": [
      {"measurement": "IC50", "setting": "[1]", "value": "1710 ± 90", "unit": "nM"},
      {"measurement": "IC50", "setting": "SARS-CoV-2 nsp14 [2]", "value": "1770 ± 10", "unit": "nM"}
    ]},
    {"molecule": "[Cl][Au][PH]12CN3CN(CN(C3)C1)C2", "note": "[Urotropine-Au-Cl]", "values": [
      {"measurement": "ExoN enzyme activity remaining", "setting": "[1]; 50 mol equiv of compound", "value": 0.68, "unit": "%"}
    ]},
    {"molecule": "CC(=O)OC[C@H]1O[C@@H]([S-])[C@H](OC(C)=O)[C@@H](OC(C)=O)[C@@H]1OC(C)=O.CCP(CC)CC.[Au+]", "note": "[auranofin]", "values": [
      {"measurement": "EC50", "setting": "[7]", "value": "730 ± 210", "unit": "nM"}
    ]},
    {"molecule": "(1-(adamantan-1-yl)thiourea)-(triethylphosphine)-gold(I) [Au-amantadine]", "values": [
      {"measurement": "IC50", "setting": "[1]", "value": "1570 ± 120", "unit": "nM"},
      {"measurement": "IC50", "setting": "SARS-CoV-2 nsp14 [2]; [8]", "value": "8160 ± 180", "unit": "nM"}
    ]},
    {"molecule": "B1", "values": [
      {"measurement": "binding result", "setting": "nsp14 (ExoN/N7-MTase)", "value": "binds"}
    ]}
  ]
}
